Experiment [1] addresses T1, DGKζ (hDGKzeta(1-928)-N-His) (Homo sapiens, UniProt Q13574).
T1 construct: hDGKzeta(1-928)-N-His; His (N); made in house; host or cells: Sf21 insect cells (baculovirus)
Description: In vitro DGK inhibition assay, DGKzeta ADP Glo (in house). It is filed as biochemical. The note with it: 2 nM DGKζ, 50 μM ATP, 125 uM DLG in liposomes, 1 hour reaction. As for the experimental part:
(§1) DGKα and ζ kinases use ATP to phosphorylate the substrate 1,2-dilauroyl-sn-glycerol (DLG, incorporated in the liposomes). ATP is converted to ADP as a result of this enzymatic reaction. After the kinase reaction, an ATP-depletion reagent is added to terminate the kinase reaction and deplete any remaining ATP, leaving only ADP. Second, a detection reagent is added to simultaneously convert ADP to ATP and allow the newly synthesized ATP to be converted to light using a coupled luciferase/luciferin reaction.
(§2) Full length DGKα and ζ were expressed in Sf21 insect cells by infecting the cells with the baculovirus stock at MOI of 2. Purification of both enzymes was performed as previously described by Takahashi et al., PeerJ, 2018 (Takahashi, D.; Sakane, F. Expression and purification of human diacylglycerol 5 kinase alpha from baculovirus-infected insect cells for structural studies. PeerJ2018, 6, No. e5449).
(§3) A concentrated liposome solution was prepared in assay buffer without DTT and BSA: 2 mM of DLG in 21 mM of total liposome (2 mM DLG/8 mM PS/11 mM PC). The reaction mixtures contain the assay buffer with a final DLG concentration of 125 uM ATP concentrations of 25 μM (for DGKA assay) or 50 μM (for DGKZ assay). The reactions were started by addition of DGK α and ζ kinases at 4 nM and 2 nM final concentrations, respectively. After 1 hour reaction, the amount of ADP formed was detected with the ADP-Glo kinase assay (Promega) according to the manufacturer instructions. Compounds were added in 11-points dose response, starting at […], 1:3 dilutions, with a final DMSO concentration of 2%. The multidrop combi was used as a liquid handler and luminescence was read with 0.5 s by the envision reader (PE).
For orientation: In ADP-Glo the light output rises with the ADP produced.

The target of a further experiment is T2, DGK ζ kinase (Homo sapiens, UniProt Q13574).
T2 construct: purchased Reaction Biology Corp. (contract assay service)
T2 sequence (Q13574 whole entry): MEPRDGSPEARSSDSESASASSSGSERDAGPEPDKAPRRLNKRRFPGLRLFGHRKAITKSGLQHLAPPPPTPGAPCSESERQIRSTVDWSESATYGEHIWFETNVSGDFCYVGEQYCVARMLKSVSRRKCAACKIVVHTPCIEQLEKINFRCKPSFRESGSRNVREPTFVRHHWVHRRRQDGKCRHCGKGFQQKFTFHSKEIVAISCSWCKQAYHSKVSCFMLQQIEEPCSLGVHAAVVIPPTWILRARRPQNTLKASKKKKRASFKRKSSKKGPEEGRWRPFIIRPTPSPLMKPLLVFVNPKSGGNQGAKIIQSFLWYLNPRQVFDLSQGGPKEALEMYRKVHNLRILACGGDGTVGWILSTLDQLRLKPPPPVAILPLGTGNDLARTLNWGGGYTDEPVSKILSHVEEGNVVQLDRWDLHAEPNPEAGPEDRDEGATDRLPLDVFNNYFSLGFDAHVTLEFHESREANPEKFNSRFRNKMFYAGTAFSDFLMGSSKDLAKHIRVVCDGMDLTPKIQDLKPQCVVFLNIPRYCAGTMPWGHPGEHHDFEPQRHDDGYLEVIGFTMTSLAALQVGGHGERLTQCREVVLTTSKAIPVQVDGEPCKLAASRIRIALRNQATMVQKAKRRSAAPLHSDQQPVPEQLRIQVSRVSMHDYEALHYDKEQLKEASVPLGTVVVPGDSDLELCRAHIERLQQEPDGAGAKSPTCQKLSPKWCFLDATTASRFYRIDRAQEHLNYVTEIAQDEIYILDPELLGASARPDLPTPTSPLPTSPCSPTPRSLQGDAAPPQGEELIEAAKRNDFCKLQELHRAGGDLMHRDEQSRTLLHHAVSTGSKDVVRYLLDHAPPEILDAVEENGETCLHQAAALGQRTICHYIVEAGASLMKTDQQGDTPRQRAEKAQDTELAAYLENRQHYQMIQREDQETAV
Description: DGKzeta kinase ADP Glo assay run by Reaction Biology Corp. It is filed as biochemical. To be noted: 2 nM kinase, 50 µM ATP, 500 μM DLG, 10-dose duplicate. As for the experimental part: (§4) DGK α and ζ kinases use ATP to phosphorylate the substrate 1,2-dilauroyl-sn-glycerol (DLG). ATP is converted to ADP as a result of this enzymatic reaction.
(§5) After the kinase reaction, an ATP-depletion reagent is added to terminate the kinase reaction and deplete any remaining ATP, leaving only ADP. Second, a detection reagent is added to simultaneously convert ADP to ATP and allow the newly synthesized ATP to be converted to light using a coupled luciferase/luciferin reaction.
(§6) DGK α and ζ kinase ADP Glo assays were ran by Reaction Biology Corp., 1 Great Valley Parkway, Suite 2, Malvern, 19355, PA, USA. Information provided by the service provider are the following: DGK α and ζ kinases were used at 2 nM final concentration. Reactions were carried out at 50 µM ATP. 500 μM of the substrate DLG (Dilauroyl-sn-glycerol) was used.

Experiment [2] addresses T3, DGKα (hDGKalpha(1-735)-N-His) (Homo sapiens, UniProt P23743).
T3 construct: hDGKalpha(1-735)-N-His; His (N); made in house; host or cells: Sf21 insect cells (baculovirus)
Description: In vitro DGK inhibition assay, DGKalpha ADP Glo (in house). It is filed as biochemical. To be noted: 4 nM DGKα, 25 μM ATP, 125 uM DLG in liposomes, 1 hour reaction. As for the experimental part: as §1, §2, §3

The subject of the next experiment is primary human T-cells. Description: Proliferation assay (5 days, CellTiter-Glo, CD3-stimulated T-cells). The class given is cell-based. To be noted: for Emax proliferation (% activation): CD3 condition, normalised to DMSO (neutral) and 20 μM reference compound A1 = 100%; for EC50: Homo sapiens, T-cell, 120 h, CD3-stimulated primary human T-cells, 5 days, CellTiter-Glo, fitted sigmoidal curve, read-out: Tcell Proliferation CD3 EC50. The gist of the method:
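Proliferation read-out: ATP luminescence (CellTiter-Glo 2.0) at day 5 in expanded primary human T-cells on CD3 antibody-coated plates, with PBS-only plates as a counter screen. Compounds in 5–6 pt series (factor 3.333, top 20 or 10 μM final). Values are normalized to DMSO (neutral) and 20 μM reference A1 (100%), from sigmoidal fits.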
A general note: ATP-based viability assays read luminescence as a measure of living cells.

The next experiment has as its target T4, DGK α kinase (Homo sapiens, UniProt P23743).
T4 construct: purchased Reaction Biology Corp. (contract assay service)
Description: DGKalpha kinase ADP Glo assay run by Reaction Biology Corp. The class given is biochemical. To be noted: 2 nM kinase, 50 µM ATP, 500 μM DLG, 10-dose duplicate. Here is the method: as §4, §5, §6

T3 sequence (P23743 whole entry): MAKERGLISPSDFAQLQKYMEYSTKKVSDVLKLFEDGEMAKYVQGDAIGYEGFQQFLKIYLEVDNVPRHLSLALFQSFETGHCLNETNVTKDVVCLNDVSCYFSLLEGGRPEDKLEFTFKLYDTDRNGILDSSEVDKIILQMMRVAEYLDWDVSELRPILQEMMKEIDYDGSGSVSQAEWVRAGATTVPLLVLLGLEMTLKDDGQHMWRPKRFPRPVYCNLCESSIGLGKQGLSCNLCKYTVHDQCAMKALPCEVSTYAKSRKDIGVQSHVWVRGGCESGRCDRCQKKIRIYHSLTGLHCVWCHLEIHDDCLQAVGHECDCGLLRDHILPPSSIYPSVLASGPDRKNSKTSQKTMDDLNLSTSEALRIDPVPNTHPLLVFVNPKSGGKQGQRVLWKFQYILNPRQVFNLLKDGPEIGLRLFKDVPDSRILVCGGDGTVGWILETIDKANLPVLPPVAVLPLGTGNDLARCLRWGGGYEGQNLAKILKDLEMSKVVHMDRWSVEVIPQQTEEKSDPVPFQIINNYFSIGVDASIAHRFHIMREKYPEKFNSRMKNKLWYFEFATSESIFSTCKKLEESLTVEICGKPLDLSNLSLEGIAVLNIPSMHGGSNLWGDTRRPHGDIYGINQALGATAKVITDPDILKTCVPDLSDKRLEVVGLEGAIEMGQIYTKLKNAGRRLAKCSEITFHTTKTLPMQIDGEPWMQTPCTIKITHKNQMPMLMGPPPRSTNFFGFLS
T1 sequence (Q13574 whole entry): as the sequence (Q13574 whole entry) above
T4 sequence (P23743 whole entry): as the sequence (P23743 whole entry) above

In the case of `CN1CCCC(F)(c2nnc(-c3ccc4c(c3)N(Cc3ccc(-c5noc(C(F)(F)F)n5)cc3)C(=O)[C@@H](N)CS4(=O)=O)o2)C1` (stereo partly drawn) [Example 49, (3R)-3-amino-7-[5-(3-fluoro-1-methyl-3-piperidyl)-1,3,4-oxadiazol-2-yl]-1,1-dioxo-5-[[4-[5-(trifluoromethyl)-1,2,4-oxadiazol-3-yl]phenyl]methyl]-2,3-dihydro-1λ^6,5-benzothiazepin-4-one], the 50% inhibitory concentration (IC50) turned out to be 3.1 µM in experiment [1], 0.365 µM against DGK ζ kinase, 17.8 µM in experiment [2] and 0.227 µM against DGK α kinase. For the same compound, the “Emax proliferation (% activation)” value with primary human T-cells is given as 86 % activation. The EC50 in the experiment with primary human T-cells was 0.122 µM.

On to `Cn1nc(OC(F)(F)F)cc1-c1ccc(CN2C(=O)[C@@H](N)CS(=O)(=O)c3ccc(-c4nnc(C(C)(C)C#N)o4)cc32)cc1` [Example 148, 2-[5-[(3R)-3-amino-5-[[4-[2-methyl-5-(trifluoromethoxy)pyrazol-3-yl]phenyl]methyl]-1,1,4-trioxo-2,3-dihydro-1λ^6,5-benzothiazepin-7-yl]-1,3,4-oxadiazol-2-yl]-2-methyl-propanenitrile], for which the IC50 in experiment [1] stood at 1.05 µM. Also, the IC50 in experiment [2] came to 0.737 µM. In the experiment with primary human T-cells, the “Emax proliferation (% activation)” value came to 186 % activation and the EC50 came to 0.182 µM.

One may read the IC50 as the concentration at which inhibition is half-maximal. Low values mean greater potency in that assay, high ones weaker potency in that assay.

Source of the values: patent US20260138976A1 (Hoffmann-La Roche Inc., priority 2022, published 2026).
